In patent US20230219956A1 (BETTA PHARMACEUTICALS CO.,LTD, priority 2019, published 2023):

Tests used:
H358 cells = assay: Cell proliferation assay, H358 cells (Cell-titer Glo); format: cell-based; settings: Homo sapiens, NCI-H358, 96 h incubation
Experimental: (§1) Pave the H358 cells on a 96-well ultra-low adsorption plate with 2000 cells and 190 μL/well. After incubating overnight, compound solutions of gradient concentration was prepared, and added 10 μL of DMSO solution of the test compound of each concentration to the cells of each well. The final concentration of the compound is 10000, 3333.3, 1111.1, 370.4, 123.5, 41.2, 13.7, 4.6, 1.5, 0 nM (the final concentration of DMSO is 0.25%). Incubated for 96 h at 37° C. and 5% CO2. 50 μL of Cell-titer Glo working solution was added to each well, shaked and mixed, and incubated at room temperature for 10 minutes. The multi-functional microplate reader read the luminescence value, and converted the luminescence value reading into inhibition percentage.
(§2) Inhibition percentage=(maximum value−reading)/(maximum value−minimum value)*100.
(§3) The “maximum value” was the DMSO control, the “minimum value” indicates the cell-free control group.
(§4) Graphpad Prism software was used to perform curve fitting and obtain IC50 value.
Refer to table 3 for the IC50 data of some compounds in the Examples for inhibiting H358 cells.

MIA-PACA-2 cells = assay: Cell proliferation assay, MIA-PACA-2 cells (Cell-titer Glo); format: cell-based; settings: Homo sapiens, 96 h incubation
Experimental: as §1, with “the MIA-PACA-2” for “the H358”, “cells into” for “cells on”, “plate at 600 cells, 160” for “plate with 2000 cells and 190”, “added 40” for “added 10”, “10000, 2000, 400, 80, 16, 3.2, 0.64, 0.12, 0.025,” for “10000, 3333.3, 1111.1, 370.4, 123.5, 41.2, 13.7, 4.6, 1.5,”
as §2, §3, §4
Refer to Table 3 for the IC50 data of some compounds in the examples inhibiting MIA-PACA-2 cells.

SMILES | IC50 (H358 cells) | IC50 (MIA-PACA-2 cells)
C=CC(=O)N1CC2(CCN(c3nc(C4CCN(CCOC)CC4)nc4c(OCC(F)(F)F)c(-c5c(C)ccc6[nH]ncc56)c(CC)cc34)CC2)C1 [Example 35, 1-(7-(6-ethyl-2-(1-(2-methoxyethyl)piperidin-4-yl)-7-(5-methyl-1H-indazol-4-yl)-8-(2,2,2-trifluoroethoxy)quinazolin-4-yl)-2,7-diazaspiro[3.5]nonan-2-yl)prop-2-en-1-one] | 9.6 nM | 10.9 nM
C=CC(=O)N1CC2(CCN(c3nc(C4CCN(C)CC4)nc4c(OCC(F)(F)F)c(-c5c(C)ncc6[nH]ncc56)c(C=C)cc34)CC2)C1 [Example 56, 1-(7-(7-(5-methyl-1H-pyrazolo [3,4-c]pyridin-4-yl)-2-(1-methylpiperidine-4-yl)-8-(2,2,2-trifluoroethoxy)-6-vinylquinazolin-4-yl)-2,7-diazaspiro[3.5]nonan-2-yl) prop-2-en-1-one] | 2520 nM | 2580 nM
C=CC(=O)N1CC2(CCN(c3nc(C4CCN(CC(C)(C)O)CC4)nc4c(OCC(F)(F)F)c(-c5c(C)ccc6[nH]ncc56)c(C=C)cc34)CC2)C1 [Example 60] | 4.1 nM | 4 nM
C=CC(=O)N1CC2(CCN(c3nc(C4CCN(C)CC4)nc4c(OC(C)C)c(-c5c(C)ccc6[nH]ncc56)c(CC)cc34)CC2)C1 [Example 27] | 392 nM | 388 nM
C=CC(=O)N1CC2(CCN(c3nc(C4CCN(C)CC4)nc4c(OCC(F)F)c(-c5c(C)ccc6[nH]ncc56)c(Cl)cc34)CC2)C1 [Example 34] | 39 nM | 36.9 nM
C=CC(=O)N1CC2(CCN(c3nc(C4CCN(CC)CC4)nc4c(OCC(F)(F)F)c(-c5c(C)ccc6[nH]ncc56)c(C=C)cc34)CC2)C1 [Example 9, 1-(7-(2-(1-ethylpiperidin-4-yl)-7-(5-methyl-1H-indazol-4-yl)-8-(2,2,2-trifluoroethoxy)-6-vinylquinazolin-4-yl)-2,7-diazaspiro[3.5]nonan-2-yl)prop-2-en-1-one] | 3.7 nM | 2.1 nM
C=CC(=O)N1CC2(CCN(c3nc(C4CN(CC)C4)nc4c(OCC(F)(F)F)c(-c5c(C)ccc6[nH]ncc56)c(CC)cc34)CC2)C1 [Example 46, 1-(7-(6-ethyl-2-(1-ethyl-azacyclobutane-3-yl)-7-(5-methyl-1H-indazole-4-yl)-8-(2,2,2-trifluoroethoxy)quinazolin-4-yl)-2,7-diazarospiro [3.5]nonan-2-yl) propyl-2-en-1-one] | 37 nM | 34 nM
C=CC(=O)N1CC2(CCN(c3nc(C4CCN(C)CC4)nc4c(OCC(F)(F)F)c(-c5ccc6[nH]ncc6c5)c(C5CC5)cc34)CC2)C1 [Example 17] | 8440 nM | 1540 nM
C=CC(=O)N1CC2(CCN(c3nc(C4CCN(C)CC4)nc4c(OC)c(-c5c(C)ccc6[nH]ncc56)c(Cl)cc34)CC2)C1 [Example 12, 1-(7-(6-chloro-8-methoxy-7-(5-methyl-1H-indazol-4-yl)-2-(1-methylpiperidine-4-yl)-quinazolin-4-yl)-2,7-diazaspiro[3.5]nonan-2-yl)prop-2-en-1-one] | 76.2 nM | 107 nM
C=CC(=O)N1CC2(CCN(c3nc(C4CCN(C5CCC(O)CC5)CC4)nc4c(OCC(F)(F)F)c(-c5c(C)ccc6[nH]ncc56)c(C=C)cc34)CC2)C1 (stereo not drawn) [Example 73] | 24.3 nM | 24.1 nM
C=CC(=O)N1CC2(CCN(c3nc(C4CCN(C)CC4)nc4c(OCC(F)(F)F)c(-c5c(C)ccc6[nH]ncc56)c(C5CC5)cc34)CC2)C1 [Example 16] | 3.2 nM | 4.8 nM
C=CC(=O)N1CC2(CCN(c3nc(C4CN(CCC#N)C4)nc4c(OCC(F)(F)F)c(-c5c(C)ccc6[nH]ncc56)c(CC)cc34)CC2)C1 [Example 39, 3-(3-(4-(2-acryloyl-2,7-diazaspiro[3.5]nonan-7-yl)-6-ethyl-7-(5-methyl-1H-indazol-4-yl)-8-(2,2,2-trifluoroethoxy)quinazolin-2-yl)azetidin-1-yl)propionitrile] | 97.8 nM | 78 nM
C=CC(=O)N1CC2(CCN(c3nc(C4CCN(Cc5ccccc5)CC4)nc4c(OCC(F)(F)F)c(-c5c(C)ccc6[nH]ncc56)c(C=C)cc34)CC2)C1 [Example 77, 1-(7-(2-(1-benzylpiperidin-4-yl)-7-(5-methyl-1H-indazol-4-yl)-8-(2,2,2-trifluoroethoxy)-6-vinylquinazolin-4-yl)-2,7-diazarospiro [3.5]nonan-2-yl) propyl-2-en-1-one] | 37.6 nM | 33.7 nM
C=CC(=O)N1CC2(CCN(c3nc(C4CCN(C)CC4)nc4c(OCCF)c(-c5c(C)ccc6[nH]ncc56)c(CC)cc34)CC2)C1 [Example 29] | 1080 nM | 455 nM
C=CC(=O)N1CC2(CCN(c3nc(C4CCN(CC5CC(F)(F)C5)CC4)nc4c(OCC(F)(F)F)c(-c5c(C)ccc6[nH]ncc56)c(C=C)cc34)CC2)C1 [Example 76, 1-(7-(2-(1-((3,3-difluorocyclobutyl)methyl)piperidin-4-yl)-7-(5-methyl-1H-indazole-4-yl)-8-(2,2,2-trifluoroethoxy)-6-vinylquinazolin-4-yl)-2,7-diazspiro [3.5]nonan-2-yl) propyl-2-en-1-one] | 19.3 nM | 21.4 nM
C=CC(=O)N1CC2(CCN(c3nc(C4CN(CC(C)(C)O)C4)nc4c(OCC(F)(F)F)c(-c5c(C)ccc6[nH]ncc56)c(CC)cc34)CC2)C1 [Example 38, 1-(7-(6-ethyl-2-(1-(2-hydroxy-2-methylpropyl)azetidin-3-yl)-7-(5-methyl-1H-indazol-4-yl)-8-(2,2,2-trifluoroethoxy)quinazolin-4-yl)-2,7-diazaspiro[3.5]nonan 2-yl) prop-2-en-1-one] | 59.3 nM | 74.2 nM
C=CC(=O)N1CC2(CCN(c3nc(C4CCN(C5CCC5)CC4)nc4c(OCC(F)(F)F)c(-c5c(C)ccc6[nH]ncc56)c(C=C)cc34)CC2)C1 [Example 69, 1-(7-(2-(1-cyclobutylpiperidin-4-yl)-7-(5-methyl-1H-indazol-4-yl)-8-(2,2,2-trifluoroethoxy)-6-vinylquinazolin-4-yl)-2,7-diazspiro [3.5]nonan-2-yl) propyl-2-en-1-one] | 3.4 nM | 3.7 nM
C=CC(=O)N1CC2(CCN(c3nc(C4CCN(C)CC4)nc4c(OCC)c(-c5c(C)ccc6[nH]ncc56)c(CC)cc34)CC2)C1 [Example 25] | 13 nM | 32.6 nM
C=CC(=O)N1CC2(CCN(c3nc(C4CCN(C)CC4)nc4c(OCC5CC5)c(-c5c(C)ccc6[nH]ncc56)c(CC)cc34)CC2)C1 [Example 31] | 20.4 nM | 91.9 nM
C=CC(=O)N1CC2(CCN(c3nc(C4CCN(CCF)CC4)nc4c(OCC(F)(F)F)c(-c5c(C)ccc6[nH]ncc56)c(C=C)cc34)CC2)C1 [Example 75, 1-(7-(2-(1-(2-(fluoroethyl))piperidin-4-yl)-7-(5-methyl-1H-indazole-4-yl)-8-(2,2,2-trifluoroethoxy)-6-vinylquinazolin-4-yl)-2,7-diazarospiro [3.5]nonan-2-yl) propyl-2-en-1-one] | 2.6 nM | 3.6 nM
C=Cc1cc2c(N3CCC4(CC3)CN(C(=O)C(=C)F)C4)nc(C3CCN(CCC#N)CC3)nc2c(OCC(F)(F)F)c1-c1c(C)ccc2[nH]ncc12 [Example 86, 3-(4-(4-(2-(2-Fluoroacryloyl)-2,7-diazspiro [3.5]nonan-7-yl)-7-(5-methyl-1H-indazole-4-yl)-8-(2,2,2-trifluoroethoxy)-6-vinylquinazolin-2-yl)piperidin-1-yl) propionitrile] | 85.8 nM | 208 nM
C=CC(=O)N1CC2(CCN(c3nc(C4CN(C(=O)C5CC5)C4)nc4c(OCC(F)(F)F)c(-c5c(C)ccc6[nH]ncc56)c(CC)cc34)CC2)C1 [Example 45, 1-(7-(2-(1-(Cyclopropanecarbonyl)azacyclobutane-3-yl)-6-ethyl-7-(5-methyl-1H-indazol-4-yl)-8-(2,2,2-trifluoroethoxy)quinazolin-4-yl)-2,7-diazaspo [3.5]nonan-2-yl) propyl-2-en-1-one] | 466 nM | 778 nM
C=CC(=O)N1CC2(CCN(c3nc(C4CCN(C)CC4)nc4c(OCC)c(-c5c(C)ccc6[nH]ncc56)c(C=C)cc34)CC2)C1 [Example 11, 1-(7-(8-ethoxy-7-(5-methyl-1H-indazol-4-yl)-2-(1-methylpiperidin-4-yl)-6-vinylquinazolin-4-yl)-2,7-diazaspiro[3.5]nonan-2-yl)prop-2-en-1-one] | 4.7 nM | 4.8 nM
C=CC(=O)N1CC2(CCN(c3nc(C4CCN(C)CC4)nc4c(OCC5(C#N)CC5)c(-c5c(C)ccc6[nH]ncc56)c(C=C)cc34)CC2)C1 [Example 49] | 11.5 nM | 9.8 nM
